Reference: ChEMBL document CHEMBL1201862, “PubChem BioAssay data set” (2004)
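Method: 48-hour compound exposure of cells in 96-well plates, five concentrations, linear interpolation of endpoints. GI50 = concentration required for 50% inhibition of growth.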 The source made the active and inactive calls. No stated cut-off is given here; in the data, active = GI50 up to about 1.1 µM and inactive = higher.

How the values were obtained:
Experiment in all cases: growth of human tumour cells (NCI), 48 h
NCI-H522 = test system: NCI-H522
M14 = test system: M14
LOX IMVI = test system: LOX IMVI
RPMI-8226 = test system: RPMI-8226
SK-MEL-5 = test system: SK-MEL-5
HL-60 = test system: HL-60
SN12C = test system: SN12C
IGROV-1 = test system: IGROV-1
786-0 = test system: 786-0
HCT-15 = test system: HCT-15
COLO 205 = test system: COLO 205
SNB-19 = test system: SNB-19
M19-MEL = test system: M19-MEL
HT-29 = test system: HT-29
U-251 = test system: U-251
K562 = test system: K562
LXFL 529 = test system: LXFL 529
DU-145 = test system: DU-145
MDA-N = test system: MDA-N
CAKI-1 = test system: CAKI-1

| SMILES | GI50 (NCI-H522) | GI50 (M14) | GI50 (LOX IMVI) | GI50 (RPMI-8226) | GI50 (SK-MEL-5) | GI50 (HL-60) | GI50 (SN12C) | GI50 (IGROV-1) | GI50 (786-0) | GI50 (HCT-15) [µM] | GI50 (COLO 205) | GI50 (SNB-19) | GI50 (M19-MEL) | GI50 (HT-29) | GI50 (U-251) | GI50 (K562) | GI50 (LXFL 529) | GI50 (DU-145) | GI50 (MDA-N) | GI50 (CAKI-1) |
| --- | --- | --- | --- | --- | --- | --- | --- | --- | --- | --- | --- | --- | --- | --- | --- | --- | --- | --- | --- | --- |
| COc1ccc(OC)c(NCC#N)c1 | > 100 µM (inactive) | > 100 µM (inactive) | > 100 µM (inactive) | > 100 µM (inactive) | > 100 µM (inactive) | > 100 µM (inactive) | > 100 µM (inactive) | > 100 µM (inactive) | > 100 µM (inactive) | > 100 | > 100 µM (inactive) | > 100 µM (inactive) | > 100 µM (inactive) | > 100 µM (inactive) | > 100 µM (inactive) | > 100 µM (inactive) |  |  |  |  |
| CC(=O)OCCOCNC(=S)N/N=C/c1cc([N+](=O)[O-])ccc1O | 30.5 µM (inactive) | 86.7 µM (inactive) | > 100 µM (inactive) |  | > 100 µM (inactive) | > 100 µM (inactive) | > 100 µM (inactive) | > 100 µM (inactive) | > 100 µM (inactive) | > 100 | 75 µM (inactive) | > 100 µM (inactive) | > 100 µM (inactive) | > 100 µM (inactive) | > 100 µM (inactive) | > 100 µM (inactive) | 93.8 µM (inactive) |  |  |  |
| COc1ccc(NC(=O)C2C(=O)N(c3ccc(OC)cc3)C(=O)/C2=N\N)cc1 (centres undefined) | > 100 µM (inactive) | > 100 µM (inactive) |  |  | > 100 µM (inactive) | > 100 µM (inactive) | > 100 µM (inactive) | > 100 µM (inactive) | > 100 µM (inactive) | > 100 | > 100 µM (inactive) | 94.8 µM (inactive) | > 100 µM (inactive) | > 100 µM (inactive) | > 100 µM (inactive) | 65 µM (inactive) | > 100 µM (inactive) |  |  |  |
| CCN1CCC(O)(/C=C/c2ccc(Cl)cc2)C(C(=O)/C=C/c2ccc(Cl)cc2)C1 (centres undefined) | 28.4 µM (inactive) | 34.6 µM (inactive) | 16.2 µM (inactive) | 2.88 µM (inactive) | 13.5 µM (inactive) | 17.5 µM (inactive) | > 10 µM (inactive) | 27.1 µM (inactive) | 20 µM (inactive) | 21.7 | 71.4 µM (inactive) | 71.6 µM (inactive) | 29.9 µM (inactive) | 18.6 µM (inactive) | 19 µM (inactive) | 28.1 µM (inactive) | 14.7 µM (inactive) |  |  |  |
| CC(=O)OCCOCNC(=S)N/N=C/c1ccc2ccccc2n1 | 14.1 µM (inactive) | 32.5 µM (inactive) | 43 µM (inactive) | > 100 µM (inactive) | 23.9 µM (inactive) | 36.4 µM (inactive) | 48 µM (inactive) | 44.6 µM (inactive) | 39.4 µM (inactive) | 29.8 | 26.5 µM (inactive) | > 100 µM (inactive) | 28.6 µM (inactive) | 40.6 µM (inactive) | 29.2 µM (inactive) | 53.2 µM (inactive) | 33.3 µM (inactive) |  |  |  |
| C=CCC1[C@@H](C(C)(C)C(C(C)=O)C(=O)C(=O)OC)OC(C(C)(C)C)N1C(=O)OC (some centres undefined) | > 100 µM (inactive) | > 100 µM (inactive) |  |  | > 100 µM (inactive) |  | > 100 µM (inactive) |  | > 100 µM (inactive) | > 100 | > 100 µM (inactive) | > 100 µM (inactive) | > 100 µM (inactive) | > 100 µM (inactive) | > 100 µM (inactive) | 40.6 µM (inactive) |  |  |  |  |
| CC1CC2OC(=O)C3CC(O)CC(=C23)[C@@]12C[C@@H](c1ccoc1)OC2=O (some centres undefined) | > 100 µM (inactive) | > 100 µM (inactive) | > 100 µM (inactive) | > 100 µM (inactive) | > 100 µM (inactive) | > 100 µM (inactive) | > 100 µM (inactive) | > 100 µM (inactive) | > 100 µM (inactive) | > 100 | > 100 µM (inactive) | > 100 µM (inactive) | > 100 µM (inactive) | > 100 µM (inactive) | > 100 µM (inactive) | > 100 µM (inactive) | > 100 µM (inactive) |  |  |  |
| Cc1c2cnccc2c(C)c2c1c1ccccc1n2CCCN | 0.447 µM (active) | 0.276 µM (active) | 0.109 µM (active) | 0.153 µM (active) | 0.755 µM (active) |  | 0.401 µM (active) | 0.506 µM (active) | 0.0667 µM (active) | 0.169 | 0.222 µM (active) | 0.424 µM (active) | 0.262 µM (active) | 0.206 µM (active) | 0.258 µM (active) | 0.138 µM (active) |  | 0.104 µM (active) | 0.226 µM (active) |  |
| COc1cc2c(c(OC)c1OC)-c1ccc(OC)c(=O)cc1[C@@H](N(C)C=O)CC2 | 0.015 µM (active) | < 0.0122 µM (active) | 0.0249 µM (active) | 0.0249 µM (active) | < 0.01 µM (active) | 0.0158 µM (active) | 0.0329 µM (active) | 0.0262 µM (active) | 0.0277 µM (active) | 0.0752 | 0.0129 µM (active) | 0.0215 µM (active) |  | 0.0156 µM (active) | < 0.0163 µM (active) | 0.0128 µM (active) | < 0.0184 µM (active) |  |  | 0.0304 µM (active) |
| Cl[Si]1(Cl)Oc2ccccc2O[Si](Cl)(Cl)Oc2ccccc2O1 | 1.53 µM (inactive) | 15.5 µM (inactive) | 9.14 µM (inactive) | 9.18 µM (inactive) | 12.4 µM (inactive) | 1.25 µM (inactive) | 6.7 µM (inactive) | 28.6 µM (inactive) | 8.45 µM (inactive) | 21 | 13.8 µM (inactive) | 17.4 µM (inactive) | 12 µM (inactive) | 17 µM (inactive) | 28.1 µM (inactive) | 15.3 µM (inactive) |  |  |  | 28.4 µM (inactive) |
| C=C1CCc2occ(C)c2C2C1C1=C(CC(C)C1=O)C1OC12C (centres undefined) | 44.8 µM (inactive) | > 100 µM (inactive) | > 100 µM (inactive) |  | 52.2 µM (inactive) |  | > 100 µM (inactive) | > 100 µM (inactive) | > 100 µM (inactive) | > 100 | > 100 µM (inactive) | 26.5 µM (inactive) | > 100 µM (inactive) | > 100 µM (inactive) | > 100 µM (inactive) | > 100 µM (inactive) | > 100 µM (inactive) |  |  |  |
| CC(=O)OCC1=C(CCC#N)N2C(=O)C(NC(=O)Cc3cccs3)C2[S+]([O-])C1 (centres undefined) | 44.6 µM (inactive) | > 100 µM (inactive) | > 100 µM (inactive) | > 100 µM (inactive) | > 100 µM (inactive) | > 100 µM (inactive) | > 100 µM (inactive) | > 100 µM (inactive) | > 100 µM (inactive) | > 100 | > 100 µM (inactive) | > 100 µM (inactive) | > 100 µM (inactive) | > 100 µM (inactive) | > 100 µM (inactive) | > 100 µM (inactive) |  |  |  | > 100 µM (inactive) |
| O=C(CSc1nc(-c2ccccc2)c(-c2ccccc2)[nH]1)N/N=C/c1ccc([N+](=O)[O-])cc1 | 14.5 µM (inactive) | 17.4 µM (inactive) | 15.9 µM (inactive) | 16.6 µM (inactive) | 17.3 µM (inactive) | 34.8 µM (inactive) | 16.2 µM (inactive) | 17.6 µM (inactive) | 16.8 µM (inactive) | 14 | 16.7 µM (inactive) |  | 17.1 µM (inactive) | 19.2 µM (inactive) | 14.1 µM (inactive) |  | 20.4 µM (inactive) |  |  |  |
| COc1cc2c(c(OC)c1OC)-c1ccc(SC)c(=O)cc1[C@@H](NC(=O)c1ccc(C#N)cc1)CC2 | < 0.01 µM (active) | < 0.01 µM (active) | < 0.01 µM (active) | < 0.01 µM (active) | < 0.01 µM (active) | < 0.01 µM (active) | < 0.01 µM (active) | < 0.01 µM (active) | < 0.01 µM (active) | < 0.01 | < 0.01 µM (active) | < 0.01 µM (active) | < 0.01 µM (active) | < 0.01 µM (active) | < 0.01 µM (active) | < 0.01 µM (active) | < 0.01 µM (active) |  |  |  |
| CC(C)N(C(=O)C12C3C4C5(C#N)C3C1(C#N)C5C42C#N)C(C)C (centres undefined) | > 100 µM (inactive) |  | > 100 µM (inactive) | > 100 µM (inactive) | > 100 µM (inactive) | > 100 µM (inactive) | > 100 µM (inactive) | > 100 µM (inactive) | > 100 µM (inactive) |  | > 100 µM (inactive) | > 100 µM (inactive) | > 100 µM (inactive) | > 100 µM (inactive) | > 100 µM (inactive) | > 100 µM (inactive) | > 100 µM (inactive) |  |  |  |
| CC1OC(OC2C(O[C@H]3CC[C@@]4(C)C(=CC[C@H]5[C@@H]6C[C@@H]7O[C@]8(CC[C@@H](CO)CO8)[C@@H](C)[C@@H]7[C@@]6(C)CC[C@@H]54)C3)OC(CO)C(O)C2OC2OC(CO)C(O)C(O)C2O)C(O)C(O)C1O (some centres undefined) | 1.72 µM (inactive) | 2.04 µM (inactive) | 1.85 µM (inactive) | 1.94 µM (inactive) | 1.64 µM (inactive) | 1.44 µM (inactive) | 1.8 µM (inactive) | 1.95 µM (inactive) | 1.9 µM (inactive) | 1.91 | 1.88 µM (inactive) | 2.02 µM (inactive) |  | 2.1 µM (inactive) | 1.79 µM (inactive) | 1.71 µM (inactive) |  | 1.84 µM (inactive) | 1.68 µM (inactive) | 1.95 µM (inactive) |
| C[P+]1(c2ccccc2)CCCCC1 |  | > 100 µM (inactive) | > 100 µM (inactive) | > 100 µM (inactive) | > 100 µM (inactive) |  | > 100 µM (inactive) | > 100 µM (inactive) | > 100 µM (inactive) | > 100 | > 100 µM (inactive) | > 100 µM (inactive) | > 100 µM (inactive) | > 100 µM (inactive) | > 100 µM (inactive) | > 100 µM (inactive) | > 100 µM (inactive) |  |  | > 100 µM (inactive) |
